Like-named read-outs stand apart in the source and are kept apart here.
Assays:
[1] = test system: influenza A virus A/PR/8/34 (H1N1); assay type: in vivo, BALB/c mice; conditions: for Survival rate (percentage): end of the experiment (day 14); for Maximum rate of weight loss / day N of maximum rate of weight loss: mouse, in vivo
[2] = test system: influenza virus A/PR/8/34 (H1N1); assay: Influenza virus cytopathic effect (CPE) assay in MDCK cells; assay type: cell-based; conditions: 120 h, 5 days, CCK8
[3] = in vitro; assay type: in vitro ADME; conditions: 2 μM, 37° C., 4 hours, read-out: Plasma protein binding (PPB) unbound (%)
Method: (§1) Experimental purpose: To evaluate the protein binding rate of the compounds of the present disclosure in the plasma of CD-1 mouse, SD rat, and human using equilibrium dialysis.
(§2) Experimental protocol: The test compounds were diluted with dialysis buffer into the plasma of the above […] to prepare samples with a final concentration of 2 μM. The samples were then added to a 96-well equilibrium dialysis device and dialyzed using phosphate buffer solution at 37° C. for 4 hours. Warfarin was used as a control compound in the experiment. The concentration of the test compounds and warfarin in the plasma and buffer was determined using LC-MS/MS.

[4] = in vitro; assay type: in vitro ADME, CD-1 mouse; conditions: CD-1; mouse (M) plasma, 2 μM, 37° C., 4 hours; read-out: Plasma protein binding (PPB) unbound (%)
Method: as §1, §2

[5] = in vivo; parameters: species or system male SD rats; conditions: male, SD, iv, 1 mg/kg, rat, 1 mpk
Method: Experimental purpose: To investigate the plasma pharmacokinetics of the compounds of the present disclosure in male SD rats after a single intravenous injection or an oral administration.
Experimental animals: male SD rats, 6 to 8 weeks old, weighing between 200 to 300 g;
Experimental procedure: Injection administration (i.v.) was carried out with a dose of 1 mpk, at a concentration of 0.50 mg/mL, with a vehicle of 40% DMAC+40% PG+20% (20% HP-β-CD+water). Oral administration (po) was carried out with a dose of 10 mpk, at a concentration of 1 mg/mL, with a vehicle of 3% DMSO+10% solutol HS+87% water.
(§3) Sample collection: At each time point, 0.03 mL of blood samples were collected from the experimental animals through a puncture of the saphenous vein. The actual blood collection time was recorded. All blood samples were kept in commercially available 1.5 mL EDTA-K2 anticoagulant tubes. After blood sample collection, DDV was added into the plasma matrix as a stabilizer, wherein the ratio of plasma to Dichlorvos (DDV) solution was 40:1. The DDV solution was a 40 mM DDV solution in acetonitrile/water (1:1). Within half an hour, the mixture was centrifuged at 4° C. and 3000 g for 10 minutes. The supernatant plasma was aspirated, quickly placed in dry ice, and stored in a −80° C. refrigerator for LC-MS/MS analysis.
Data analysis: A non-compartmental model in Phoenix WinNonlin 6.3 pharmacokinetic software was used to process the plasma concentration data. The pharmacokinetic parameters were calculated using the linear-log trapezoidal method: Cl (apparent clearance rate), T1/2 (the time required to clear half of the compound), Cmax (peak concentration), and AUC0-last (integral area under the concentration-time curve from 0 to the last sampling time).

[6] = in vivo; parameters: species or system male beagle dogs; conditions: male, iv, 1 mg/kg, beagle dog, 1 mpk
Method: Experimental purpose: To investigate the plasma pharmacokinetics of the compounds of the present disclosure in male beagle dogs after a single intravenous injection or an oral administration.
Experimental animals: male beagle dogs, >6 months old, weighing between 6 to 12 kg.
Experimental procedure: Injection administration (i.v.) was carried out with a dose of 1 mpk, at a concentration of 1 mg/mL, with a vehicle of 10% DMAC+90% (20% HP-β-CD+water). Oral administration (po) was carried out with a dose of 10 mpk, at a concentration of 2 mg/mL, with a vehicle of 3% DMSO+10% solutol HS+87% water.
as §3, with “0.8” for “0.03”
Data analysis: A non-compartmental model in Phoenix WinNonlin 6.3 pharmacokinetic software was used to process the plasma concentration data. The pharmacokinetic parameters were calculated using the linear-log trapezoidal method: Cl, T1/2, Cmax, and AUC0-last.

Question: What does the source list for `COC(=O)OCOc1c2n(ccc1=O)N([C@@H]1c3ccccc3[Se]Cc3c1ccc(F)c3F)[C@@H]1COCCN1C2=O` [Compound 5]?
Answer: Survival rate (percentage) [1]: 100%; Maximum rate of weight loss [1]: 13.77%; day N of maximum rate of weight loss [1]: 7 days

Question: Which EC50 [2] does the source give for `O=C1c2c(O)c(=O)ccn2N([C@@H]2c3ccc(F)c(F)c3C[Se]c3cccnc32)[C@@H]2COCCN12` [Compound 3′] here?
Answer: Its EC50 is 157 nM.

Question: With `COC(=O)OCOc1c2n(ccc1=O)N([C@H]1c3ccc(F)c(F)c3C[Se]c3cccnc31)[C@@H]1COCCN1C2=O` [Compound 4] as the compound, how does the “Survival rate (percentage)” value [1] read?
Answer: The value was 100%.

Question: And the “Maximum rate of weight loss” value [1]?
Answer: The value was 7.03%.

Question: And the “day N of maximum rate of weight loss” value [1]?
Answer: The value was 3 days.

Question: Which results are given for `O=C1c2c(O)c(=O)ccn2N([C@H]2c3ccc(F)c(F)c3C[Se]c3cccnc32)[C@@H]2COCCN12` [Compound 3]?
Answer: EC50 [2]: 2.8 nM; fraction unbound ([3]; SD, rat (R) plasma): 0.313; fraction unbound ([3]; crab-eating macaque (C) plasma): 0.316; fraction unbound ([3]; dog (D) plasma): 0.246; fraction unbound ([3]; human (H) plasma): 0.259; fraction unbound [4]: 0.137; AUC(0-t) [5]: 0.171 µM·h; clearance [5]: 178 mL/min/kg; half-life [5]: 1.7 h; AUC(0-t) [6]: 0.83 µM·h; clearance [6]: 36.8 mL/min/kg; half-life [6]: 3.7 h

Source: patent US12552812B2, “Pyridone multiple-membered ring derivatives and use thereof” (priority 2021, dated 2026)
